What was measured:
Test in all cases: biochemical
Parameters in all cases: species or system HEK293/K-562/placenta mixed human extract; Kinobeads chemoproteomic competition binding, quantified by TMT LC-MS/MS, dose response up to 20 uM
RPS6KA4 = RPS6KA4 (Homo sapiens, UniProt O75676)
DDR2 = DDR2 (Homo sapiens, UniProt Q16832)
EPHB3 = EPHB3 (Homo sapiens, UniProt P54753)
HIPK2 = HIPK2 (Homo sapiens, UniProt Q9H2X6)
TNIK = TNIK (Homo sapiens, UniProt Q9UKE5)
LCK = LCK (Homo sapiens, UniProt P06239)
EPHB1 = EPHB1 (Homo sapiens, UniProt P54762)
HIPK3 = HIPK3 (Homo sapiens, UniProt Q9H422)
NEK7 = NEK7 (Homo sapiens, UniProt Q8TDX7)
DAPK3 = DAPK3 (Homo sapiens, UniProt O43293)
MAP4K2 = MAP4K2 (Homo sapiens, UniProt Q12851)
CAMKK1 = CAMKK1 (Homo sapiens, UniProt Q8N5S9)
MAP2K6 = MAP2K6 (Homo sapiens, UniProt P52564)
STK38L = STK38L (Homo sapiens, UniProt Q9Y2H1)
TYRO3 = TYRO3 (Homo sapiens, UniProt Q06418)
CSNK1A1 = CSNK1A1 (Homo sapiens, UniProt P48729)
PRKAA1 = PRKAA1 (Homo sapiens, UniProt Q13131)
PAK6 = PAK6 (Homo sapiens, UniProt Q9NQU5)
NTRK1 = NTRK1 (Homo sapiens, UniProt P04629)
IKBKE = IKBKE (Homo sapiens, UniProt Q14164)
BMPR1A = BMPR1A (Homo sapiens, UniProt P36894)

Measured: IC50

Chain of MAP4K2 (Q12851 whole entry): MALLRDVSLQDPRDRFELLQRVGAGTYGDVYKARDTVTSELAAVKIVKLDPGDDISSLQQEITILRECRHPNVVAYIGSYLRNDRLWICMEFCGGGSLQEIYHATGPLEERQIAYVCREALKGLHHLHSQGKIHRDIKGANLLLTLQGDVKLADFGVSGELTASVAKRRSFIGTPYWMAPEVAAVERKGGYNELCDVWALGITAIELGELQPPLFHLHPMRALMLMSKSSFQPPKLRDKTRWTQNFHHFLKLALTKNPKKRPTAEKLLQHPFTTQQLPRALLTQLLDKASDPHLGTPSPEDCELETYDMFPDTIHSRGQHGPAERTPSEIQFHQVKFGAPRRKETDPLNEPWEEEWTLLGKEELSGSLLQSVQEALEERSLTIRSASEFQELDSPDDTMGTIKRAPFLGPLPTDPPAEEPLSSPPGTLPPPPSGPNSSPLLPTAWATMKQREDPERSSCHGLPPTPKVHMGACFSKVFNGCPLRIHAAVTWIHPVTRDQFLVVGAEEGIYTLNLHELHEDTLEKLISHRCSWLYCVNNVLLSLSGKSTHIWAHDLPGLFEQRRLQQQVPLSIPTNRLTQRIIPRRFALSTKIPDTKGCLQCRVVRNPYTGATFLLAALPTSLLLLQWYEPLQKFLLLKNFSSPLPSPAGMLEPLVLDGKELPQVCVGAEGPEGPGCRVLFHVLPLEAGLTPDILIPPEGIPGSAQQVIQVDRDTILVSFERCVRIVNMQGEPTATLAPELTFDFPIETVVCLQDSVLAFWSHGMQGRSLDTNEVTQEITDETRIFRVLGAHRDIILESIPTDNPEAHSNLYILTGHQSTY
Chain of CSNK1A1 (P48729 whole entry): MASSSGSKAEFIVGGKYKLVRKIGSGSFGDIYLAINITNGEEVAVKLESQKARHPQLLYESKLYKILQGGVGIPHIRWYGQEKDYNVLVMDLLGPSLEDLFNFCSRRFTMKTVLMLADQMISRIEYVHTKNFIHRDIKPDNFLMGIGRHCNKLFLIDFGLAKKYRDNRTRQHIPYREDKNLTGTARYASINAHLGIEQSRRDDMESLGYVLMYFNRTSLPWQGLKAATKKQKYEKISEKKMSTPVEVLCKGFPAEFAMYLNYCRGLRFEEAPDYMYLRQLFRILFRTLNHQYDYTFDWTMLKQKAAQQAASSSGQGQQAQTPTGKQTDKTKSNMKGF
Chain of CAMKK1 (Q8N5S9 whole entry): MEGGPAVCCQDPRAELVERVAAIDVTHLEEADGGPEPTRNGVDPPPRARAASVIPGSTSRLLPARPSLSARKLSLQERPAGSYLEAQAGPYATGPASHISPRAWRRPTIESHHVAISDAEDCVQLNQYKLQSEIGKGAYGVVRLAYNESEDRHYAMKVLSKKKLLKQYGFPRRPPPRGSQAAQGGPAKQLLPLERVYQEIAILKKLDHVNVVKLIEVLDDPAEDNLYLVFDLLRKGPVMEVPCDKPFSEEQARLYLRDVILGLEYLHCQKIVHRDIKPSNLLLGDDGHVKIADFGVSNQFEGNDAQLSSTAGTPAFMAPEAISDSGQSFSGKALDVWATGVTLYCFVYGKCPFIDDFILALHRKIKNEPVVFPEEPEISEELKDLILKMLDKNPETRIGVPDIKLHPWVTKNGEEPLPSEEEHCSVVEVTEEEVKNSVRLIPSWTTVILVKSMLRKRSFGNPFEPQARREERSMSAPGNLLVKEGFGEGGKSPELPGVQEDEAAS
Chain of EPHB1 (P54762 whole entry): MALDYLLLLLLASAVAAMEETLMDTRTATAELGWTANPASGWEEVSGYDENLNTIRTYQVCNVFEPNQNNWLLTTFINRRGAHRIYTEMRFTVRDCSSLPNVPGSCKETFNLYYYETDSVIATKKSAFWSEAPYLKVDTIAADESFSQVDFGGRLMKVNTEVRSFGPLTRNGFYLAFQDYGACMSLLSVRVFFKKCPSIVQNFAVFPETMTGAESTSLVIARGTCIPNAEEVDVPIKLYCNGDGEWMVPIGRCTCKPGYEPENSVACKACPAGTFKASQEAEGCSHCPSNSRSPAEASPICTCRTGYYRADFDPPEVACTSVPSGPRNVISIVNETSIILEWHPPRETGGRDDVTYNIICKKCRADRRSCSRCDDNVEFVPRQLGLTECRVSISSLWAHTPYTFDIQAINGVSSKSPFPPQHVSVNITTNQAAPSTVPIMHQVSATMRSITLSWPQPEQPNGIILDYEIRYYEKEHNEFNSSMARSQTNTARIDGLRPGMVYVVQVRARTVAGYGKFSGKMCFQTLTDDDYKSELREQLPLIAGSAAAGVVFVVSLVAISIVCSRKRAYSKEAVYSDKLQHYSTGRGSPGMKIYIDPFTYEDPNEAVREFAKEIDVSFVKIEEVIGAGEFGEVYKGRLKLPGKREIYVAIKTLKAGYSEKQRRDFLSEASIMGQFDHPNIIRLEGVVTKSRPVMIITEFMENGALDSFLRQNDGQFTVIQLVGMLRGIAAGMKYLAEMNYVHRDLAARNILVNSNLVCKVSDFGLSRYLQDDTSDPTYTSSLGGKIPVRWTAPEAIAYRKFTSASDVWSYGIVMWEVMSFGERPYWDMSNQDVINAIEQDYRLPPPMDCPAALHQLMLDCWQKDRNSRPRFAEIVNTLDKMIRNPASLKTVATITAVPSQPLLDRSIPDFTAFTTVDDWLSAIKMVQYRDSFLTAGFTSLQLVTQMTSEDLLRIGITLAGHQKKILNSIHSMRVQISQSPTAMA
Chain of IKBKE (Q14164 whole entry): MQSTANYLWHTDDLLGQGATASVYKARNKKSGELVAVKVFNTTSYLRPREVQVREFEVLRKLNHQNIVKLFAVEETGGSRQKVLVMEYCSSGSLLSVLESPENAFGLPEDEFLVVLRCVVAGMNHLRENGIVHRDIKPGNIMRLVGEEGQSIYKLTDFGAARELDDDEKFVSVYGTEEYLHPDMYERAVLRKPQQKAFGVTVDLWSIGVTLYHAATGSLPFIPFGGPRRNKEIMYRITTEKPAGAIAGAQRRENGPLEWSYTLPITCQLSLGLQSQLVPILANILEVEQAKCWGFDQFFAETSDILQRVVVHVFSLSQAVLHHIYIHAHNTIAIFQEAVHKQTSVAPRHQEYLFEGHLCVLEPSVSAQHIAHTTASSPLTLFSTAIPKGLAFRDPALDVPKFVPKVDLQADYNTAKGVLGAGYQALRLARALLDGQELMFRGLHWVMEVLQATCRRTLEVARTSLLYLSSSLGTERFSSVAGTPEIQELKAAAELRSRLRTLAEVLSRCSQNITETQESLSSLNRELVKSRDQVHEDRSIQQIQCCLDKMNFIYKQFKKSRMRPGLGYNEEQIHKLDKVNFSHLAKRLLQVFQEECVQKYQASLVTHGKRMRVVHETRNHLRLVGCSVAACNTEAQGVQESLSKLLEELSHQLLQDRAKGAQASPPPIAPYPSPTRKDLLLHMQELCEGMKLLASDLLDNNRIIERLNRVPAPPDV
Chain of HIPK3 (Q9H422 whole entry): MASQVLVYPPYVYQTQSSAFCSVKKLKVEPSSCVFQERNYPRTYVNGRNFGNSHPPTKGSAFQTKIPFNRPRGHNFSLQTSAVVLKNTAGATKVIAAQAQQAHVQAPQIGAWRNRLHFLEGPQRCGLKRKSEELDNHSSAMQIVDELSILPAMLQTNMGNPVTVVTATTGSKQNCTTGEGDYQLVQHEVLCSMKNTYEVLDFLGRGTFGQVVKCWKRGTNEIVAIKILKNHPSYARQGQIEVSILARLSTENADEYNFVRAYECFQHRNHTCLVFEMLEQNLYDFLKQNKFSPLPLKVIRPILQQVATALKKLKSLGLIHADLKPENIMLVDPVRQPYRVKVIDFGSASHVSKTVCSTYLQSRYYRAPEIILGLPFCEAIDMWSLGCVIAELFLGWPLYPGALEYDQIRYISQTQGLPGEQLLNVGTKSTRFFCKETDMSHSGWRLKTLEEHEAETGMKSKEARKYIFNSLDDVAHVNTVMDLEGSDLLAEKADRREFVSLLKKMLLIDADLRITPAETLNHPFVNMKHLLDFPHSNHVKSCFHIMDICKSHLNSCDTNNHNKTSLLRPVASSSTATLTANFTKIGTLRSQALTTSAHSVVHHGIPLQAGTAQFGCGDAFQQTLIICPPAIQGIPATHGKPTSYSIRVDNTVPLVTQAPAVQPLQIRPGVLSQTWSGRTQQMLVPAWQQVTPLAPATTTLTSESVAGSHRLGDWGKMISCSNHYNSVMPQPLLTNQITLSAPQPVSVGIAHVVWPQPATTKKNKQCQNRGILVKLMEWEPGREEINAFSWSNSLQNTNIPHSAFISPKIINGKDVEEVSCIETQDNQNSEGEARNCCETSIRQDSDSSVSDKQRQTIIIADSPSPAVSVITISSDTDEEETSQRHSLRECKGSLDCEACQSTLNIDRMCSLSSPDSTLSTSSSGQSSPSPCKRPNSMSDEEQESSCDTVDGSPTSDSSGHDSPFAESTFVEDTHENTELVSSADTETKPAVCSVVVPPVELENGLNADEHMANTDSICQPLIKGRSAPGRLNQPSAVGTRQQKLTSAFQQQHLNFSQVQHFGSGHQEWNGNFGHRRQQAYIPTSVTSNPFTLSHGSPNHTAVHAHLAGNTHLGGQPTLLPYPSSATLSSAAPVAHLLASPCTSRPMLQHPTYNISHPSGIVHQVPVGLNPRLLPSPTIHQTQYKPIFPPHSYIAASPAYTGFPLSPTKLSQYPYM
Chain of MAP2K6 (P52564 whole entry): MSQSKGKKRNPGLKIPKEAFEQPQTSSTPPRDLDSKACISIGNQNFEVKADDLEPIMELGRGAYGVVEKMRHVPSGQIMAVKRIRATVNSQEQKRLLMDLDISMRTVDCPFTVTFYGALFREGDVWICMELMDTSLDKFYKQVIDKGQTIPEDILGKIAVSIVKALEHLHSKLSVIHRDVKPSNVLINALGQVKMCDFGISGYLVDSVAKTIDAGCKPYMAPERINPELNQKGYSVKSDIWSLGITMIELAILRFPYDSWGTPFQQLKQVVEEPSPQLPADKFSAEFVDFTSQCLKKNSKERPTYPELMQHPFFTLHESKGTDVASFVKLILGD

COc1ccccc1-c1n[nH]c2nc(N[C@H]3CC[C@H](NS(=O)(=O)CCC(F)(F)F)CC3)nc(OC)c12 [compound 31, 3,3,3-Trifluoro-N-(trans-4-((4-methoxy-3-(2-methoxyphenyl)-1H-pyrazolo[3,4-d]pyrimidin-6-yl)amino)cyclohexyl)propane-1-sulfonamide]
≥ 20 µM: all assays above

From publication PMC6407917, “Identification of GSK3186899/DDD853651 as a Preclinical Development Candidate for the Treatment of Visceral Leishmaniasis” (Journal of Medicinal Chemistry, 2018)
